Results: patent US10875850B2, “Pesticidally active azetidine sulfones amide isoxazoline derivatives” (SYNGENTA PARTICIPATIONS AG, priority 2016, dated 2020)

Tests used:
Type in all cases: in vivo
[1] = test system: Spodoptera littoralis; experiment: Comparative Example C2: Spodoptera littoralis, feeding/contact activity, various application rates; details: 3 days after infestation
Method: (§1) Cotton leaf discs were placed onto agar in 24-well microtiter plates and sprayed with aqueous test solutions prepared from 10′000 ppm DMSO stock solutions. After drying the leaf discs were infested with five L1 larvae. The samples were assessed for mortality (%) 3 days after infestation at the various application rates. Example C3: Tetranychus urticae (Two-Spotted Spider Mite): Feeding/Contact Activity Bean leaf discs on agar in 24-well microtiter plates were sprayed with aqueous test solutions prepared from 10′000 ppm DMSO stock solutions. After drying the leaf discs were infested with a mite population of mixed ages. The samples were assessed for mortality on mixed population (%) (mobile stages) 8 days after infestation at the various application rates.

[2] = test system: Plutella xylostella; experiment: Comparative Example C1: Plutella xylostella, feeding/contact activity, various application rates; details: 5 days after infestation
Method: 24-well microtiter plates with artificial diet were treated with aqueous test solutions prepared from 10′000 ppm DMSO stock solutions by pipetting. After drying, the plates were infested with L2 larvae (10 to 15 per well). The samples were assessed for mortality (%) 5 days after infestation at the various application rates.

[3] = test system: Thrips tabaci; experiment: Comparative Example C4: Thrips tabaci, feeding/contact activity, various application rates; details: 6 days after infestation
Method: (§2) Sunflower leaf discs were placed on agar in 24-well microtiter plates and sprayed with aqueous test solutions prepared from 10′000 ppm DMSO stock solutions. After drying the leaf discs were infested with a thrips population of mixed ages. The samples were assessed for mortality (%) 6 days after infestation at the various application rates.

[4] = test system: Tetranychus urticae; experiment: Comparative Example C3: Tetranychus urticae, feeding/contact activity, various application rates; details: 8 days after infestation
Method: as §1

[5] = test system: Diabrotica balteata; experiment: Example B1: Diabrotica balteata (corn root worm), maize sprouts sprayed; details: 96 h, read-out: effect in at least one of the two categories (mortality or growth inhibition)
Method: Maize sprouts placed onto an agar layer in 24-well microtiter plates were treated with aqueous test solutions prepared from 10′000 ppm DMSO stock solutions by spraying. After drying, the plates were infested with L2 larvae (6 to 10 per well). The samples were assessed for mortality and growth inhibition in comparison to untreated samples 4 days after infestation. The following compounds gave an effect of at least 80% in at least one of the two categories (mortality or growth inhibition) at an application rate of 200 ppm: A01, A02, A03, A04, A05, A06, A07, A08, A09, A10, A11, A12, A13, A14, A15, A16, A17, A18, A19, A20, A21, A22, A23, A24, A25, A26, A27, A28, B01

[6] = test system: Euschistus heros; experiment: Example B2: Euschistus heros (neotropical brown stink bug), soybean leaves sprayed; details: 120 h, read-out: effect in at least one of the two categories (mortality or growth inhibition)
Method: Soybean leaves on agar in 24-well microtiter plates were sprayed with aqueous test solutions prepared from 10′000 ppm DMSO stock solutions. After drying the leaves were infested with N2 nymphs. The samples were assessed for mortality and growth inhibition in comparison to untreated samples 5 days after infestation. The following compounds gave an effect of at least 80% in at least one of the two categories (mortality or growth inhibition) at an application rate of 200 ppm: A01, A02, A03, A04, A05, A06, A07, A08, A09, A10, A11, A12, A13, A14, A15, A16, A17, A18, A19, A20, A21, A22, A23, A24, A25, A26, A27, A28, B01

[7] = test system: Myzus persicae; experiment: Example B3: Myzus persicae (green peach aphid), intrinsic activity; details: 120 h
Method: Test compounds prepared from 10′000 ppm DMSO stock solutions were applied by pipette into 24-well microtiter plates and mixed with sucrose solution. The plates were closed with a stretched Parafilm. A plastic stencil with 24 holes was placed onto the plate and infested pea seedlings were placed directly on the Parafilm. The infested plate was closed with a gel blotting paper and another plastic stencil and then turned upside down. The samples were assessed for mortality 5 days after infestation.

[8] = test system: Plutella xylostella; experiment: Example B4: Plutella xylostella (diamond back moth), artificial diet; details: 120 h, read-out: effect in at least one of the two categories (mortality or growth inhibition)
Method: 24-well microtiter plates with artificial diet were treated with aqueous test solutions prepared from 10′000 ppm DMSO stock solutions by pipetting. After drying, the plates were infested with L2 larvae (10 to 15 per well). The samples were assessed for mortality and growth inhibition in comparison to untreated samples 5 days after infestation. The following compounds gave an effect of at least 80% in at least one of the two categories (mortality or growth inhibition) at an application rate of 200 ppm: A01, A02, A03, A04, A05, A06, A07, A08, A09, A10, A11, A12, A13, A14, A15, A16, A17, A18, A19, A20, A21, A22, A23, A24, A25, A26, A27, A28, B01

[9] = test system: Spodoptera littoralis; experiment: Example B5: Spodoptera littoralis (Egyptian cotton leaf worm), feeding/contact activity; details: 72 h
Method: Cotton leaf discs were placed onto agar in 24-well microtiter plates and sprayed with aqueous test solutions prepared from 10′000 ppm DMSO stock solutions. After drying the leaf discs were infested with five L1 larvae. The samples were assessed for mortality 3 days after infestation.

[10] = test system: Tetranychus urticae; experiment: Example B6: Tetranychus urticae (two-spotted spider mite), feeding/contact activity; details: 192 h, read-out: mortality on mixed population (mobile stages)
Method: Bean leaf discs on agar in 24-well microtiter plates were sprayed with aqueous test solutions prepared from 10′000 ppm DMSO stock solutions. After drying the leaf discs were infested with a mite population of mixed ages. The samples were assessed for mortality on mixed population (mobile stages) 8 days after infestation.

[11] = test system: Thrips tabaci; experiment: Example B7: Thrips tabaci (onion thrips), feeding/contact activity; details: 144 h
Method: as §2, with “mortality” for “mortality (%)”, “infestation.” for “infestation at the various application rates.”

[12] = test system: Myzus persicae; experiment: Example B8: Myzus persicae (green peach aphid), feeding/contact activity; details: 144 h
Method: Sunflower leaf discs were placed onto agar in a 24-well microtiter plate and sprayed with aqueous test solutions prepared from 10′000 ppm DMSO stock solutions. After drying, the leaf discs were infested with an aphid population of mixed ages. The samples were assessed for mortality 6 days after infestation.

Cc1cc(C2=NOC(c3cc(Cl)cc(Cl)c3)(C(F)(F)F)C2)ccc1C(=O)NC1CN(S(C)(=O)=O)C1 (centres unmarked) [Compound A02]
Spodoptera littoralis larval average mortality (%) ([1]; application rate 0.195 ppm): 50% | Spodoptera littoralis larval average mortality (%) ([1]; application rate 0.781 ppm): 100% | Spodoptera littoralis larval average mortality (%) ([1]; application rate 3.12 ppm): 100% | Spodoptera littoralis larval average mortality (%) ([1]; application rate 12.5 ppm): 100% | Spodoptera littoralis larval average mortality (%) ([1]; application rate 50 ppm): 100% | Spodoptera littoralis larval average mortality (%) ([1]; application rate 200 ppm): 100% | Plutella xylostella larval average mortality (%) ([2]; application rate 0.195 ppm): 80% | Plutella xylostella larval average mortality (%) ([2]; application rate 0.781 ppm): 100% | Plutella xylostella larval average mortality (%) ([2]; application rate 3.12 ppm): 100% | Plutella xylostella larval average mortality (%) ([2]; application rate 12.5 ppm): 100% | Plutella xylostella larval average mortality (%) ([2]; application rate 50 ppm): 100% | Plutella xylostella larval average mortality (%) ([2]; application rate 200 ppm): 100% | Thrips tabaci mixed population average mortality (%) ([3]; application rate 0.195 ppm): 0% | Thrips tabaci mixed population average mortality (%) ([3]; application rate 0.781 ppm): 100% | Thrips tabaci mixed population average mortality (%) ([3]; application rate 3.12 ppm): 100% | Thrips tabaci mixed population average mortality (%) ([3]; application rate 12.5 ppm): 100% | Thrips tabaci mixed population average mortality (%) ([3]; application rate 50 ppm): 100% | Thrips tabaci mixed population average mortality (%) ([3]; application rate 200 ppm): 100% | Tetranychus urticae mixed population average mortality (%) ([4]; application rate 0.195 ppm): 0% | Tetranychus urticae mixed population average mortality (%) ([4]; application rate 0.781 ppm): 50% | Tetranychus urticae mixed population average mortality (%) ([4]; application rate 3.12 ppm): 100% | Tetranychus urticae mixed population average mortality (%) ([4]; application rate 12.5 ppm): 100% | Tetranychus urticae mixed population average mortality (%) ([4]; application rate 50 ppm): 100% | Tetranychus urticae mixed population average mortality (%) ([4]; application rate 200 ppm): 100%

CCS(=O)(=O)N1CC(NC(=O)c2ccc(C3=NO[C@@](c4cc(Cl)cc(Cl)c4)(C(F)(F)F)C3)cc2C)C1 [Compound A11, 4-[(5S)-5-(3,5-dichlorophenyl)-5-(trifluoromethyl)-4H-isoxazol-3-yl]-N-(1-ethylsulfonylazetidin-3-yl)-2-methyl-benzamide]
percent control (mortality or growth inhibition) at 200 ppm [5]: ≥ 80% | percent control (mortality or growth inhibition) at 200 ppm [6]: ≥ 80% | mortality at 12 ppm [7]: ≥ 80% | percent control (mortality or growth inhibition) at 200 ppm [8]: ≥ 80% | mortality at 200 ppm [9]: ≥ 80% | mortality at 200 ppm [10]: ≥ 80% | mortality at 200 ppm [11]: ≥ 80%

CS(=O)(=O)N1CC(NC(=O)c2ccc(C3=NOC(c4cc(Cl)c(F)c(Cl)c4)(C(F)(F)F)C3)c3c2CCC3)C1 (centres unmarked) [Compound B01, 7-[5-(3,5-dichloro-4-fluoro-phenyl)-5-(trifluoromethyl)-4H-isoxazol-3-yl]-N-(1-methylsulfonylazetidin-3-yl)indane-4-carboxamide]
percent control (mortality or growth inhibition) at 200 ppm [5]: ≥ 80% | percent control (mortality or growth inhibition) at 200 ppm [6]: ≥ 80% | percent control (mortality or growth inhibition) at 200 ppm [8]: ≥ 80% | mortality at 200 ppm [9]: ≥ 80% | mortality at 200 ppm [10]: ≥ 80% | mortality at 200 ppm [11]: ≥ 80% | mortality at 200 ppm [12]: ≥ 80%
